One may read the IC50 as the midpoint of a concentration-inhibition curve. By MIC is commonly meant the lowest concentration that inhibits growth of the organism. As a reminder, the MIC90 is an inhibitory concentration at the 90% level, which refers to growth in some studies and to a panel of isolates in others.

Values after ≈ are worked out from the molar mass of the structure shown.

Assay [1] concerns the target T1, Enoyl-[acyl-carrier-protein] reductase [NADH] FabI (Escherichia coli K-12, UniProt P0AEK4).
T1 sequence (P0AEK4 whole entry): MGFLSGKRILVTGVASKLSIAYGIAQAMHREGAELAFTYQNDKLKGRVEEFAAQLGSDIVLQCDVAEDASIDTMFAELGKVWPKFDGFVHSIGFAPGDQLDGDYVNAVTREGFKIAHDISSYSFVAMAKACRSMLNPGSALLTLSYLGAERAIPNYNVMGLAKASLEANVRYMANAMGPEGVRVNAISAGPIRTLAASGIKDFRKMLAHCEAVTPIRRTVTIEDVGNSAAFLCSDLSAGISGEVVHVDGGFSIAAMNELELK
The assay can be described thus: Inhibition of Escherichia coli FabI in the presence of NADH using crotonyl CoA as substrate by measuring NADH consumption rate.

Assay [2] has as its target T2, Enoyl-[acyl-carrier-protein] reductase [NADPH] FabI (Staphylococcus aureus, UniProt Q6GI75).
T2 sequence (Q6GI75 whole entry): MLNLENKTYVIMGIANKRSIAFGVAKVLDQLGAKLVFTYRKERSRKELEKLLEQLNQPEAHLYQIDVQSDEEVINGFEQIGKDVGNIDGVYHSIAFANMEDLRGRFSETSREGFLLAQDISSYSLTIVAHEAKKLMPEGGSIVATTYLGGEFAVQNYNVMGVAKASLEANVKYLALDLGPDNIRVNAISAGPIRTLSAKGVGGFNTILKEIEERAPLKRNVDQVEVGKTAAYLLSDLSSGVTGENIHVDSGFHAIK
The assay can be described thus: Inhibition of Staphylococcus aureus FabI in the presence of NADH using crotonyl CoA as substrate by measuring NADH consumption rate.

In assay [3] the test system is Staphylococcus aureus. The assay can be described thus: Antibacterial activity against Methicillin-resistant Staphylococcus aureus N315 assessed as reduction in bacterial growth. It counts as functional.
Assay [4] addresses T2, Enoyl-[acyl-carrier-protein] reductase [NADPH] FabI. The assay can be described thus: Inhibition of Staphylococcus aureus ATCC 29213 FabI in the presence of NADH using crotonyl CoA as substrate by measuring NADH consumption rate.
Assay [5] concerns Staphylococcus aureus. The assay can be described thus: Antibacterial activity against quinolone-resistant Staphylococcus aureus. It counts as functional.
In assay [6] the test system is Staphylococcus aureus. The assay can be described thus: Antibacterial activity against Staphylococcus aureus ATCC 29213 assessed as bacterial growth inhibition incubated for 24 hrs by broth dilution method. It counts as functional. In general terms: In broth dilution the organism is exposed to a series of concentrations in liquid medium.
Assay [7] relates to Escherichia coli. The assay can be described thus: Antibacterial activity against Escherichia coli BAA 2340 assessed as reduction in microbial growth inhibition. It is filed as functional.
Another assay deals with Klebsiella pneumoniae. The assay can be described thus: Antibacterial activity against Klebsiella pneumoniae BAA-1705. It counts as functional.
A further assay deals with Acinetobacter baumannii. The assay can be described thus: Antibacterial activity against Acinetobacter baumannii W41979. It counts as functional.
Assay [8] concerns Mycobacterium tuberculosis. The assay can be described thus: Antimycobacterial activity against Mycobacterium tuberculosis H37Rv. It counts as functional.
In assay [9] the test system is Escherichia coli. The assay can be described thus: Antibacterial activity against Escherichia coli assessed as bacterial growth inhibition at 50 uM measured after 24 hrs by 96-wellplate reader assay method. It counts as functional.
Assay [10] deals with T1, Enoyl-[acyl-carrier-protein] reductase [NADH] FabI. The assay can be described thus: Inhibition of Escherichia coli DH5alpha FabI in the presence of NADH using crotonyl CoA as substrate by measuring NADH consumption rate.
Assay [11] deals with Escherichia coli. The assay can be described thus: Antibacterial activity against Escherichia coli ATCC 8730 assessed as inhibition of bacterial growth. It counts as functional.
In another assay the test system is Vibrio cholerae. The assay can be described thus: Antibacterial activity against Vibrio cholerae. It is filed as functional.
Assay [12] concerns Staphylococcus aureus. The assay can be described thus: Antibacterial activity against Staphylococcus aureus ATCC 11632 assessed as reduction in bacterial growth at 25 ug/ml measured after 24 hrs serial dilution method. It counts as functional. The settings on record: dose 25 µg/ml.
The test system of a further assay is Bacillus subtilis. The assay can be described thus: Antibacterial activity against Bacillus subtilis ATCC 60511 assessed as reduction in bacterial growth at 25 ug/ml measured after 24 hrs serial dilution method. Conditions: dose 25 µg/ml. It counts as functional.
Assay [13] has as its system Mycobacterium tuberculosis. The assay can be described thus: Antimycobacterial activity against Mycobacterium tuberculosis H37Rv after 14 days. It is filed as functional. The settings on record: 336 h, time 14 day.
A short description of assay [14]: Inhibition of Francisella tularensis FabI by addition of crotonyl-CoA as substrate preincubated for 10 mins followed by substrate addition in presence of NAD by spectrophotometer.
Assay [15] concerns Staphylococcus aureus. The assay can be described thus: Antibacterial activity against Methicillin-resistant Staphylococcus aureus ATCC 33592 assessed as bacterial growth inhibition measured after 24 hrs by broth dilution method. It is filed as functional.
Assay [16] concerns Staphylococcus aureus. The assay can be described thus: Antibacterial activity against methicillin-resistant Staphylococcus aureus ATCC 4330 assessed as reduction in bacterial growth. It counts as functional.
Assay [17] deals with Staphylococcus aureus. The assay can be described thus: Antibacterial activity against Methicillin-sensitive Staphylococcus aureus ATCC 4330 assessed as reduction in bacterial growth. It is filed as functional.
Assay [18] concerns Mycobacterium tuberculosis. The assay can be described thus: Antimycobacterial activity against Mycobacterium tuberculosis H37Rv assessed as reduction in bacterial growth incubated for 7 days by dye based assay. It counts as functional. The settings on record: 168 h, time 7 day.
For assay [19], the system named is Staphylococcus aureus. The assay can be described thus: Antibacterial activity against Staphylococcus aureus assessed as inhibition of bacterial growth measured after 24 hrs. It counts as functional.

Consider `Cc1cc(Cl)ccc1Oc1cn(C)c(COc2ccccc2)cc1=O`, for which the half-maximal inhibitory concentration (IC50) in assay [1] came to 110 nM.
With `Cc1ccc(Oc2coc(COc3ccccc3)cc2=O)c(C)c1`, in [2], the IC50 came out at 380000 nM. In addition, the MIC in the assay on Staphylococcus aureus [3] was 1.56 µg/mL (≈ 4.85 µM).
As to `CN1C(=O)[C@@H](c2cc(Cl)c(O)c(Cl)c2)NC(=O)[C@@H]2NC(=O)[C@@H](c3cc(Cl)c(O)c(Cl)c3)NC(=O)[C@H](NC(=O)C(=O)c3cc(Cl)c(O)c(Cl)c3)Cc3cc4ccc(cc4[nH]3)-c3cc2cc(c3O)Oc2ccc(cc2)C[C@H]1C(=O)N[C@@H](C(=O)O)c1ccc(O)cc1`, the IC50 in assay [4] amounted to 500 nM. Further, the lowest concentration to inhibit growth against Staphylococcus aureus [5] (MIC) was 2 µg/mL (≈ 1.51 µM).
Regarding `Cc1ccc(Cn2cnc(-c3ccsc3)c2)cc1`, the results for the IC50 in assay [2] and in [1] were 360 nM and 3920 nM, respectively.
Regarding `Cc1c(CN(C)C(=O)/C=C/c2cnc3c(c2)CC(N)C(=O)N3)oc2ccccc12.Cl` (configuration not stated), the minimal inhibitory concentration (MIC) came out at 0.031 µg/mL with Staphylococcus aureus [6], 4 µg/mL with Escherichia coli [7], 8 µg/mL against Klebsiella pneumoniae and 4 µg/mL against Acinetobacter baumannii.
The molecule `COc1nc2ccc(C)cc2cc1/C=N/NC(=O)c1ccc(-n2cccc2)cc1` gave a minimal inhibitory concentration (MIC) in assay [8] of 1.6 µg/mL (≈ 4.16 µM).
For `Cc1ccc(Oc2ccccc2)c(O)c1`, the MIC with Escherichia coli [9] was 1 µg/mL (≈ 4.99 µM).
On to `Cc1cccc(Cl)c1Cc1c(Cl)n(Cc2cccs2)ccc1=O`, for which the IC50 in assay [4] is 350 nM; in [10], 400 nM. In the assay on Staphylococcus aureus [3], the MIC90 came to 2 µg/mL (≈ 5.49 µM).
Turning to `Cc1cc(Cl)ccc1Oc1c[nH]c(COc2ccccc2)cc1=O`, in assay [1], the IC50 was 400 nM.
Consider `CC(C)CCCC/C=C\CCCCCCCC(=O)O`, for which the IC50 in assay [2] turned out to be 16300 nM.
With `Oc1ccccc1Oc1ccccc1`, the MIC in the assay with Escherichia coli [9] came out at 3.7 µg/mL (≈ 19.9 µM).
As for `O=C(NN1C(=O)CC1c1cc2cc(Br)ccc2nc1Cl)c1ccncc1` (configuration not stated), the minimal inhibitory concentration (MIC) amounted to 0.4 µg/mL (≈ 0.927 µM) with Escherichia coli [11], 0.4 µg/mL (≈ 0.927 µM) against Vibrio cholerae, 12.5 µg/mL (≈ 29 µM) with Staphylococcus aureus [12] and 12.5 µg/mL (≈ 29 µM) in the assay with Bacillus subtilis.
Regarding `Oc1cc(Cn2cc(C3CC3)nn2)ccc1Oc1ccccc1Cl`, in assay [13], the MIC stood at 0.156 µg/mL (≈ 0.456 µM).
Consider `CC(c1ccc(Cl)c(Cl)c1)n1cnc2cc3c(cc21)CCC3` (configuration not stated), for which the IC50 in [14] came out at 18 nM. The figures for the MIC with Staphylococcus aureus [6] and in the assay on Staphylococcus aureus [15] were 5.5 µg/mL (≈ 16.6 µM) and 6.3 µg/mL (≈ 19 µM), respectively.
In assay [8], `COc1nc2ccc(Br)cc2cc1/C=N/NC(=O)c1ccc(-n2cccc2)cc1` registered an MIC of 1.6 µg/mL (≈ 3.56 µM).
Consider `Cc1ccc(Oc2cn(C)c(COc3ccccc3)cc2=O)c(C)c1`, for which, in assay [2], the IC50 is 80000 nM. Further, the minimum inhibitory concentration (MIC) in the assay on Staphylococcus aureus [3] came out at 0.049 µg/mL (≈ 0.146 µM).
Consider `Cc1c(CN(C)C(=O)/C=C/c2cnc3c(c2)C(C)(C)C(=O)N3)oc2ccccc12`, for which the MIC with Staphylococcus aureus [16] and with Staphylococcus aureus [17] was 0.015 µg/mL (≈ 0.0385 µM) each time.
With `Cc1csc(C(C)(O)c2nnc(Nc3ccn(Cc4c(F)cccc4F)n3)s2)n1` (configuration not stated), in assay [18], the minimal inhibitory concentration (MIC) came out at 0.2 µM (≈ 0.0869 µg/mL).
Take `CN1C(=O)[C@@H](c2cc(Cl)c(O)c(Cl)c2)NC(=O)[C@@H]2NC(=O)[C@@H](c3cc(Cl)c(O)c(Cl)c3)NC(=O)[C@H](NC(=O)C(=O)c3cc(Cl)c(O)c(Cl)c3)CC3C(=O)Nc4cc(ccc43)-c3cc2cc(c3O)Oc2ccc(cc2)C[C@H]1C(=O)N[C@@H](C(=O)O)c1ccc(O)cc1` (some centres not stated) [COMPLESTATINS A]: in assay [4], the IC50 worked out at 600 nM. In the assay on Staphylococcus aureus [5], the MIC was 4 µg/mL (≈ 2.97 µM).
For the molecule `CC(C)=CCc1c(O)cc(-c2cc3ccc(O)cc3o2)cc1O` [MORACIN C], the MIC in the assay on Staphylococcus aureus [19] is 32 µg/mL (≈ 103 µM).
As for `Oc1cc(Cl)ccc1Oc1ccccc1`, in the assay with Escherichia coli [9], the MIC worked out at 0.07 µg/mL (≈ 0.317 µM).

These data come from ChEMBL document CHEMBL5230110, “FabI (enoyl acyl carrier protein reductase) - A potential broad spectrum therapeutic target and its inhibitors” (Eur J Med Chem, 2020).
